Bounds are passed on as bounds.

This passage reports Ki results from patent publication EP0481522B1, “Novel mercaptoacetylamide derivatives useful as inhibitors of enkephalinase and ace” (MERRELL PHARMACEUTICALS INC., priority 1990, dated 1992).

Assay [1] concerns the target T1, Enkephalinase (Rattus norvegicus, UniProt P07861).
T1 construct: The enzyme is extracted from the microvilli fraction by using Triton X-100; from tissue; host or cells: rat kidney, microvilli fraction
T1 sequence (P07861 1-750): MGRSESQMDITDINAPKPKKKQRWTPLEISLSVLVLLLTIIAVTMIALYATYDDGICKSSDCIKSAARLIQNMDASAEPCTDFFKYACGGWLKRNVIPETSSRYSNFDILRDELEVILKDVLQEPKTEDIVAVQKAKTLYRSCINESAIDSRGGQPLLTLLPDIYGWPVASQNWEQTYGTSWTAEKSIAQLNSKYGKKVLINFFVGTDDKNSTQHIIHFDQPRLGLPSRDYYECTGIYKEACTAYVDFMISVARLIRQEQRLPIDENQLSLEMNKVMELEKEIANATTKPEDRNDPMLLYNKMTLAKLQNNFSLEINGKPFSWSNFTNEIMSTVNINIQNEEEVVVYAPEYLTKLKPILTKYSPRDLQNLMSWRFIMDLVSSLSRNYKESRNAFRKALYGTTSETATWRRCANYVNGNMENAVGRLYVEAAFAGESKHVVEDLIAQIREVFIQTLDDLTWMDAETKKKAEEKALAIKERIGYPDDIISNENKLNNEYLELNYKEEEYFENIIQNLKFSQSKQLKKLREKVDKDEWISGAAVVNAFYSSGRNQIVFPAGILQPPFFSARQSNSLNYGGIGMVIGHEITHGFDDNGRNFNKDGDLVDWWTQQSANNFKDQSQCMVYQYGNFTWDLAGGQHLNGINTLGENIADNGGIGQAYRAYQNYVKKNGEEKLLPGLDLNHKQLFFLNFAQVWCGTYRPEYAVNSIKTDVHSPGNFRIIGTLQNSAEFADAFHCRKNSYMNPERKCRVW
The experiment in a line: Enkephalinase inhibition, fluorometric enzyme assay. The assay is classed as biochemical. The following applies: enzyme partially purified from rat kidney; 12 µM dansyl-D-AlaGly(p-nitro)PheGly, 50mM HEPES buffer (pH 7.4), 25°C. The text has this: Enkephalinase is partially purified from rat kidney. The enzyme is extracted from the microvilli fraction by using Triton X-100 according to the method of Malfroy and Schwartz [J.Biol.Chem. 259, 14365-14370 (1984)] or by using proteolytic treatment according to the method of Almenoff and Orlowski [Biochem. 22, 590-599 (1983)]. The enzyme is further purified by anion exchange chromatography (Mono QTM column, Pharmacia) using a Pharmacia FPLC system. The enzyme activity may be measured by the fluorometric methods of Florentin et al. [Anal.Biochem. 141, 62-69 (1984)] or of Almenoff and Orlowski [J.Neurochemistry 42, 151-157 (1984)]. […] The substrate (and inhibitor) is added from a concentrated stock soluticn in DMSO (up to 0.1 mL DMSO final volume). The enzyme in a small volume (approximately 0.1 μg of FPLC purified protein) is added to initiate the reaction and the rate of fluorescense increase is recorded continuously using a fluorometer (excitation at 339nm, emission at 562nm).

For assay [2], the target named is ACE (Homo sapiens, UniProt P12821). Nature of the assay: ACE inhibition, spectrophotometric enzyme assay. The assay is classed as biochemical. The following applies: spectrophotometric substrate of Holmquist et al., buffer system of Ryan. From the text: The enzymatic activity of ACE is monitored using the spectrophotometric substrate described by Holmquist et al. [Anal.Biochem. 95, 540-548 (1979)] and the buffer system described by Ryan [Methods of Enzymatic Analysis, 3rd ed., H. U. Bergmeyer, editor; vol. V, Verlag Chemie, Weinheim, 1983, pp. 20-34].
ACE, sequence (P12821 30-1306, species assumed): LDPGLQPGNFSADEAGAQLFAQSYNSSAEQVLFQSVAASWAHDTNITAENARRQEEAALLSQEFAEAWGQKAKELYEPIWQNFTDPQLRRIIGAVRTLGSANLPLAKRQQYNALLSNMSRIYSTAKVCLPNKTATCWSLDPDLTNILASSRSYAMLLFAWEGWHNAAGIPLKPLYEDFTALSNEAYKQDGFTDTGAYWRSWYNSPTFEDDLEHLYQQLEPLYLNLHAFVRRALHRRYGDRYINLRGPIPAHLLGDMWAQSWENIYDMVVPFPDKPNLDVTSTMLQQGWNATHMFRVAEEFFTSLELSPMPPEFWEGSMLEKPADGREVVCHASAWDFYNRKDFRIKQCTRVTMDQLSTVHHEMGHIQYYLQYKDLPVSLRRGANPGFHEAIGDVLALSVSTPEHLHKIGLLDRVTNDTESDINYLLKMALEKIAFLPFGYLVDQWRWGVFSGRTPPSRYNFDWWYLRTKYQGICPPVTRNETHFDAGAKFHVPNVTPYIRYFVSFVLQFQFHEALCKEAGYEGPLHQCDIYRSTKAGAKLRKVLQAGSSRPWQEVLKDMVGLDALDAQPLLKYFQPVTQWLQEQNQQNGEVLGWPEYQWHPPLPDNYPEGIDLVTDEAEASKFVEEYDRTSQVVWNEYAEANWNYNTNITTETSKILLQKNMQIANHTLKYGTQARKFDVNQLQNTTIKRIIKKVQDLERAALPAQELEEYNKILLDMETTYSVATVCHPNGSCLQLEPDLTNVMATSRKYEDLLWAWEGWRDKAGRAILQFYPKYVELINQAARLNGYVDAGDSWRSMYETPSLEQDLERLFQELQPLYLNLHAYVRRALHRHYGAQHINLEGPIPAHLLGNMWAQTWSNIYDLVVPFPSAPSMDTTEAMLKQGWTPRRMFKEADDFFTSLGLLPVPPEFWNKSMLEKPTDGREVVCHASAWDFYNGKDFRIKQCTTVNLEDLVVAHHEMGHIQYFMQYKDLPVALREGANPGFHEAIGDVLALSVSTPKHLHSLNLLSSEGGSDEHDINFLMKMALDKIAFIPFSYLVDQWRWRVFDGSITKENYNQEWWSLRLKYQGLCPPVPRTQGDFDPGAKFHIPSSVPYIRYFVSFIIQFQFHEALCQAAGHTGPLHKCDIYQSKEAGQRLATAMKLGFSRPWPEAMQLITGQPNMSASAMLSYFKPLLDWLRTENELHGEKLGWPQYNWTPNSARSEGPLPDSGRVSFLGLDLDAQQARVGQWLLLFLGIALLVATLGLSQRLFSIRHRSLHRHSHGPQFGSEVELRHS

Regarding `O=C(CS)N[C@H]1Cc2ccccc2[C@H]2CCC[C@@H](C(=O)O)N2C1=O` (relative stereo) [27,855, [4S-[4α, 7α(R*), 12bβ]]-7-[(1-oxo-2-thio-ethyl)amino]-1,2,3,4,6,7,8,12b-octahydro-6-oxo-pyrido[2,1-a][2]benzazepine-4-carboxylic acid], the figures for the Ki in assay [1] and in assay [2] were 8 nM and 5 nM, respectively.
The matching figures for `O=C(N[C@H]1Cc2ccccc2[C@H]2CCC[C@@H](C(=O)O)N2C1=O)[C@@H](S)Cc1ccccc1` (relative stereo) [100,173, [4S-[4α, 7α(R*), 12bβ]]-7-[(1-oxo-2(S)-thio-3-phenylpropyl)amino]-1,2,3,4,6,7,8,12b-octahydro-6-oxo-pyrido[2,1-a][2]benzazepine-4-carboxylic acid]: less than 1 nM and 0.74 nM.
The matching figures for `O=C(N[C@H]1Cc2ccccc2[C@H]2CC[C@@H](C(=O)O)N2C1=O)[C@H](S)Cc1ccccc1` (relative stereo) [100,919, [6α(R*), 11bβ]-6-[(S)-(1-oxo-2(R)-thio-3-phenylpropyl)amino]-1,2,3,5,6,7,11b-heptahydro-5-oxo-pyrrolo[2,1-a][2]benzazepine-3(S)-carboxylic acid]: less than 1 nM and 1 nM.
The corresponding values for `O=C(N[C@H]1Cc2ccccc2[C@H]2COC[C@@H](C(=O)O)N2C1=O)[C@@H](S)Cc1ccccc1` (relative stereo) [101,519, [4S-[4α, 7α(R*), 12bβ]]-7-[(1-Oxo-2(S)-thio-3-phenylpropyl)amino]-1,2,3,4,6,7,8,12b-hexahydro-6-oxo-1 H-[1,4]-oxazino[3,4-a][2]benzazepine-4-carboxylic acid] are less than 1 nM and less than 7 nM.
Consider `O=C(N[C@H]1Cc2ccccc2[C@H]2CCC[C@@H](C(=O)O)N2C1=O)[C@H](S)Cc1ccccc1` (relative stereo) [101,628, [4S-[4α, 7α(R*), 12bβ]]-7-[(1-Oxo-2(R)-thio-3-phenylpropyl)amino]-1,2,3,4,6,7,8,12b-octahydro-6-oxo-pyrido[2,1-a][2]benzazepine-4-carboxylic acid], for which the Ki (in general, a dissociation constant, usually derived from enzyme kinetics or from competition with a known ligand) in assay [1] was less than 1 nM; in assay [2], 6.7 nM.
The corresponding values for `O=C(N[C@H]1Cc2ccccc2[C@H]2CCC[C@@H](C(=O)O)N2C1=O)C(S)c1ccccc1` (relative stereo) [101,804, [4S-[4α, 7α(R*), 12bβ]]-7-[(1-Oxo-2-thio-2-phenylethyl)amino]-1,2,3,4,6,7,8,12b-octahydro-6-oxo-pyrido[2,1-a][2]benzazepine-4-carboxylic acid] are 1 nM and 2.1 nM.
The corresponding values for `CC(=O)S[C@@H](Cc1ccccc1)C(=O)N[C@H]1Cc2ccccc2[C@H]2COC[C@@H](C(=O)O)N2C1=O` (relative stereo) [102,179, [4S-[4α, 7α(R*), 12bβ]]-7-[(1-Oxo-2(S)-acetylthio-3-phenylpropyl)amino]-1,2,3,4,6,7,8,12b-hexahydro-6-oxo-1H-[1,4]oxazino[3,4-a][2]benzazepine-4-carboxylic acid] are less than 1 nM and less than 7 nM.
